Patent US6737383B1, “Herbicidal oxadiazolidines” (priority 1999, dated 2004)

How the values were obtained:
[1] = tested on: sugar beet; test: Test B pre/postemergence sugar beet; assay type: in vivo, Beta vulgaris
Procedure, shortened: (§1)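 Response is a visual 0-to-10 score relative to untreated plants, where 0 means no effect and 10 means complete control, taken twelve to sixteen days after application. Treatments went onto soil at planting and onto foliage of 1- to 4-leaf plants, using a surfactant-containing non-phytotoxic solvent.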

[2] = tested on: wild oat; test: Test B pre/postemergence wild oat; assay type: in vivo, Avena fatua
Procedure, shortened: as §1

[3] = tested on: morningglory; test: Test B pre/postemergence morningglory; assay type: in vivo, Ipomoea hederacea
Procedure, shortened: as §1

[4] = tested on: blackgrass; test: Test B pre/postemergence blackgrass; assay type: in vivo, Alopecurus myosuroides
Procedure, shortened: as §1

[5] = tested on: velvetleaf; test: Test B pre/postemergence velvetleaf; assay type: in vivo, Abutilon theophrasti
Procedure, shortened: as §1

[6] = tested on: purple nutsedge; test: Test B pre/postemergence purple nutsedge; assay type: in vivo, Cyperus rotundus
Procedure, shortened: as §1

[7] = tested on: wheat; test: Test B pre/postemergence wheat; assay type: in vivo, Triticum aestivum
Procedure, shortened: as §1

[8] = tested on: giant foxtail; test: Test B pre/postemergence giant foxtail; assay type: in vivo, Setaria faberii
Procedure, shortened: as §1

[9] = tested on: surinam grass; test: Test B pre/postemergence surinam grass; assay type: in vivo, Brachiaria decumbens; details: Postemergence
Procedure, shortened: as §1

[10] = tested on: crabgrass; test: Test B pre/postemergence crabgrass; assay type: in vivo, Digitaria sanguinalis
Procedure, shortened: as §1

[11] = tested on: soybean; test: Test B pre/postemergence soybean; assay type: in vivo, Glycine max
Procedure, shortened: as §1

[12] = tested on: cocklebur; test: Test B pre/postemergence cocklebur; assay type: in vivo, Xanthium strumarium
Procedure, shortened: as §1

[13] = tested on: corn; test: Test B pre/postemergence corn; assay type: in vivo, Zea mays
Procedure, shortened: as §1

[14] = tested on: rape; test: Test B pre/postemergence rape; assay type: in vivo, Brassica napus
Procedure, shortened: as §1

[15] = tested on: bedstraw; test: Test B pre/postemergence bedstraw; assay type: in vivo, Galium aparine
Procedure, shortened: as §1

[16] = tested on: pigweed; test: Test B pre/postemergence pigweed; assay type: in vivo, Amaranthus retroflexus
Procedure, shortened: as §1

[17] = Postemergence, Rate 500 g/ha, scale 0 (no effect) to 10 (complete control)
[18] = Rate 125 g/ha, Preemergence, scale 0 to 10 (0 no effect, 10 complete control)
[19] = Rate 250 g/ha, Postemergence, scale 0 to 10, 0 is no effect, 10 is complete control
[20] = Rate 500 g/ha, Preemergence, scale 0 to 10 (0 no effect, 10 complete control)
[21] = Rate 1000 g/ha, Preemergence, scale 0 to 10 (0 no effect, 10 complete control)
[22] = Postemergence, Rate 125 g/ha, scale of 0 to 10 where 0 is no effect and 10 is complete control
[23] = Postemergence, Rate 1000 g/ha, scale 0 to 10 (0 no effect, 10 complete control)
[24] = Preemergence, Rate 250 g/ha, scale 0 (no effect) to 10 (complete control)

In the case of COC(=O)N(C)CCn1c(=O)on(C(=O)N(c2ccccc2)C(C)C)c1=O [Compound 775], the “Sugarbeets plant response rating” value [1, 17] is reported as 0, the “Sugarbeets plant response rating” value [1, 18] is reported as 0 and the “Sugarbeets plant response rating” value [1, 19] is reported as 0. For the same compound, the “Sugarbeets plant response rating” value [1, 20] was 3, the “Plant response rating, Sugarbeets” value [1, 21] was 3 and the “Wild oats plant response rating” value [2, 17] was 0. The “Wild oats plant response rating” value [2, 18] was 2, the “Wild oats plant response rating” value [2, 19] was 0 and the “Wild oats plant response rating” value [2, 20] was 8. The “Plant response rating, Wild oats” value [2, 21] was 9, the “Morningglory plant response rating” value [3, 22] was 5 and the “Morningglory plant response rating” value [3, 17] was 6. For the same compound, the “Morningglory plant response rating” value [3, 23] was 8, the “Morningglory plant response rating” value [3, 18] was 0 and the “Morningglory plant response rating” value [3, 19] was 6. The “Morningglory plant response rating” value [3, 20] was 2, the “Plant response rating, Morningglory” value [3, 21] was 5 and the “Blackgrass plant response rating” value [4, 22] was 0. The “Blackgrass plant response rating” value [4, 17] was 7, the “Blackgrass plant response rating” value [4, 23] was 4 and the “Blackgrass plant response rating” value [4, 24] was 9. For the same compound, the “Blackgrass plant response rating” value [4, 18] was 5, the “Blackgrass plant response rating” value [4, 19] was 4 and the “Blackgrass plant response rating” value [4, 20] was 10. For the same compound, the “Plant response rating, Blackgrass” value [4, 21] was 10, the “Velvetleaf plant response rating” value [5, 17] was 2 and the “Velvetleaf plant response rating” value [5, 18] was 0. The “Velvetleaf plant response rating” value [5, 19] was 2, the “Velvetleaf plant response rating” value [5, 20] was 0 and the “Plant response rating, Velvetleaf” value [5, 21] was 4. For the same compound, the “Nutsedge plant response rating” value [6, 22] was 0, the “Nutsedge plant response rating” value [6, 23] was 0 and the “Nutsedge plant response rating” value [6, 18] was 0. For the same compound, the “Nutsedge plant response rating” value [6, 19] was 0, the “Nutsedge plant response rating” value [6, 20] was 0 and the “Plant response rating, Nutsedge” value [6, 21] was 9. For the same compound, the “Wheat plant response rating” value [7, 17] was 0, the “Wheat plant response rating” value [7, 18] was 0 and the “Wheat plant response rating” value [7, 19] was 0. The “Wheat plant response rating” value [7, 20] was 8, the “Plant response rating, Wheat” value [7, 21] was 9 and the “Giant foxtail plant response rating” value [8, 22] was 7. The “Giant foxtail plant response rating” value [8, 17] was 9, the “Giant foxtail plant response rating” value [8, 23] was 9 and the “Giant foxtail plant response rating” value [8, 24] was 10. The “Giant foxtail plant response rating” value [8, 18] was 9, the “Giant foxtail plant response rating” value [8, 19] was 7 and the “Giant foxtail plant response rating” value [8, 20] was 10. For the same compound, the “Plant response rating, Giant foxtail” value [8, 21] was 10, the “B. signalgrass plant response rating” value ([9]; Rate 125 g/ha, scale of 0 to 10 where 0 is no effect and 10 is complete control) was 2 and the “B. signalgrass plant response rating” value ([9]; Rate 1000 g/ha, scale 0 to 10 (0 no effect, 10 complete control)) was 9. The “B. signalgrass plant response rating” value ([9]; Rate 250 g/ha, scale 0 to 10, 0 is no effect, 10 is complete control) was 3, the “B. signalgrass plant response rating” value ([9]; Rate 500 g/ha, scale 0 to 10, 0 is no effect, 10 is complete control) was 3 and the “Crabgrass plant response rating” value [10, 22] was 3. The “Crabgrass plant response rating” value [10, 17] was 9, the “Crabgrass plant response rating” value [10, 23] was 9 and the “Crabgrass plant response rating” value [10, 24] was 9. The “Crabgrass plant response rating” value [10, 18] was 9, the “Crabgrass plant response rating” value [10, 19] was 7 and the “Crabgrass plant response rating” value [10, 20] was 10. The “Plant response rating, Crabgrass” value [10, 21] was 10, the “Soybean plant response rating” value [11, 17] was 6 and the “Soybean plant response rating” value [11, 18] was 0. The “Soybean plant response rating” value [11, 19] was 6, the “Soybean plant response rating” value [11, 20] was 1 and the “Plant response rating, Soybean” value [11, 21] was 2. For the same compound, the “Cocklebur plant response rating” value [12, 22] was 0, the “Cocklebur plant response rating” value [12, 17] was 0 and the “Cocklebur plant response rating” value [12, 23] was 0. For the same compound, the “Cocklebur plant response rating” value [12, 24] was 0, the “Cocklebur plant response rating” value [12, 18] was 0 and the “Cocklebur plant response rating” value [12, 19] was 0. For the same compound, the “Cocklebur plant response rating” value [12, 20] was 0, the “Plant response rating, Cocklebur” value [12, 21] was 0 and the “Corn plant response rating” value [13, 22] was 0. For the same compound, the “Corn plant response rating” value [13, 17] was 0, the “Corn plant response rating” value [13, 23] was 0 and the “Corn plant response rating” value [13, 24] was 0. For the same compound, the “Corn plant response rating” value [13, 18] was 0, the “Corn plant response rating” value [13, 19] was 0 and the “Corn plant response rating” value [13, 20] was 3. For the same compound, the “Plant response rating, Corn” value [13, 21] was 4, the “Rape plant response rating” value [14, 22] was 0 and the “Rape plant response rating” value [14, 17] was 0. For the same compound, the “Rape plant response rating” value [14, 23] was 0, the “Rape plant response rating” value [14, 18] was 0 and the “Rape plant response rating” value [14, 19] was 0. For the same compound, the “Rape plant response rating” value [14, 20] was 0, the “Plant response rating, Rape” value [14, 21] was 7 and the “Bedstraw plant response rating” value [15, 22] was 0. For the same compound, the “Bedstraw plant response rating” value [15, 17] was 7, the “Bedstraw plant response rating” value [15, 23] was 7 and the “Bedstraw plant response rating” value [15, 24] was 0. For the same compound, the “Bedstraw plant response rating” value [15, 18] was 0, the “Bedstraw plant response rating” value [15, 19] was 2 and the “Bedstraw plant response rating” value [15, 20] was 2. For the same compound, the “Plant response rating, Bedstraw” value [15, 21] was 2, the “Redroot pigweed plant response rating” value [16, 22] was 3 and the “Redroot pigweed plant response rating” value [16, 17] was 3. The “Redroot pigweed plant response rating” value [16, 23] was 6, the “Redroot pigweed plant response rating” value [16, 18] was 0 and the “Redroot pigweed plant response rating” value [16, 19] was 3. For the same compound, the “Redroot pigweed plant response rating” value [16, 20] was 9 and the “Plant response rating, Redroot pigweed” value [16, 21] was 10.
